Molecules are shown by their SMILES. Converted amounts (≈) assume the structure as drawn.

The series can be described thus: Saturation solubility of taxol. The series is classed as physicochemical. The settings on record: pH 7.4, aqueous buffer.

The term solubility denotes the dissolved amount per volume that the medium holds. The low end stands for a poorly soluble substance, the high end for a readily soluble substance. Take `CC(=O)O[C@H]1C(=O)[C@@]2(C)[C@H]([C@H](OC(=O)c3ccccc3)[C@]3(O)C[C@H](OC(=O)[C@H](O)[C@@H](NC(=O)c4ccccc4)c4ccccc4)C(C)=C1C3(C)C)[C@]1(OC(C)=O)CO[C@@H]1C[C@@H]2O` [taxol]: the concentration in solution (solubility) was 0.32 µg/mL (≈ 0.375 µM).
